The values that follow come from PubChem BioAssay AID342 (DTP/NCI, 2004).

The subject of this test is Swiss mice, Sarcoma 180 sc, mean tumor weight T/C. Nature of the test: NCI In Vivo Anticancer Drug Screen. Data for tumor model Sarcoma 180 (subcutaneous) in Swiss mice. The note with it: endpoint: mean tumor weight, higher = larger tumour. In short, it runs like this: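 Readout is the ratio of treated-group measurement to vehicle-control measurement (T/C), based on survival or tumor size in mice carrying transplanted tumors.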

The mark [1] stands for this setting: dose: 25.0 mg/kg/injection, schedule: Q01DX007 (ip), vehicle: saline.
Setting [2] is: dose: 100.0 mg/kg/injection, schedule: Q01DX007 (ip), vehicle: saline.
[3] abbreviates: dose: 200.0 mg/kg/injection, schedule: Q01DX007 (ip), vehicle: saline.

Values joined by “and” are separate entries in the source; they are usually repeats but may differ in a detail not shown here. Equal entries are not always repeated.

One may read the T/C as the ratio of treated to control.

As to `Oc1cc(O)c2c(c1)O[C@H](c1ccc(O)c(O)c1)[C@@H](O)C2`, the T/C was 84 % of control (dose: 6.25 mg/kg/injection, schedule: Q01DX007 (ip), vehicle: saline); 99 % of control (dose: 12.5 mg/kg/injection, schedule: Q01DX007 (ip), vehicle: saline); 88 % of control under setting [1]; 83 % of control under setting [2]; 87 % of control under setting [3]; 80 % of control (dose: 400.0 mg/kg/injection, schedule: Q01DX007 (ip), vehicle: saline).

Take `CCCCCCCCCCCCCCCCCC1=NC(C)CC(C)(C)O1` (stereo not drawn): the T/C (dose: 187.5 mg/kg/injection, schedule: Q#A X014 (ip), vehicle: saline) is 63 % of control.

Consider `C[N+]1(CCC[N+]2(C)C[C@@H]3[C@H](C2)[C@@H]2C=C[C@H]3C2)CCOCC1` (stereo partly drawn), for which the T/C was 95 % of control (dose: 125.0 mg/kg/injection, schedule: Q01DX007 (ip), vehicle: saline) and 111 % of control (dose: 500.0 mg/kg/injection, schedule: Q01DX007 (ip), vehicle: saline).

For `CC(=O)Nc1ccc(/C=N/Nc2ccc([N+](=O)[O-])cn2)cc1`, the T/C was 62 % of control (dose: 45.0 mg/kg/injection, schedule: Q01DX007 (ip), vehicle: carboxymethylcellulose (CMC)); 79 % of control (dose: 67.0 mg/kg/injection, schedule: Q01DX007 (ip), vehicle: carboxymethylcellulose (CMC)); 77 % of control (dose: 83.3 mg/kg/injection, schedule: Q#A X014 (ip), vehicle: carboxymethylcellulose (CMC)); 61 % of control (dose: 83.3 mg/kg/injection, schedule: Q#A X014 (ip), vehicle: methylcellulose (MC)); 22 % of control (dose: 125.0 mg/kg/injection, schedule: Q#A X014 (ip), vehicle: carboxymethylcellulose (CMC)); 48 % of control (dose: 187.5 mg/kg/injection, schedule: Q#A X014 (ip), vehicle: carboxymethylcellulose (CMC)). Further, for the setting “dose: 281.25 mg/kg/injection, schedule: Q#A X014 (ip), vehicle: carboxymethylcellulose (CMC)”, the T/C was 47 % of control.

Take `CCC(c1ccc2cc(OC)ccc2c1)C(C)(C)C(=O)F` (stereo not drawn): the T/C is, setting by setting: (dose: 55.0 mg/kg/injection, schedule: Q01DX007 (sc), vehicle: steriod suspending solution) 35 % of control and 52 % of control; (dose: 83.0 mg/kg/injection, schedule: Q01DX007 (sc), vehicle: steriod suspending solution) 31 % of control and 49 % of control; (dose: 125.0 mg/kg/injection, schedule: Q01DX007 (sc), vehicle: steriod suspending solution) 27 % of control and 39 % of control; (dose: 188.0 mg/kg/injection, schedule: Q01DX007 (sc), vehicle: steriod suspending solution) 39 % of control and 40 % of control.

As for `CC(=O)OCC(=O)[C@@]1(O)CC[C@H]2[C@@H]3C[C@H](C)C4=CC(=O)CC[C@]4(C)[C@H]3[C@@H](O)C[C@@]21C`, the T/C is, setting by setting: (dose: 3.0 mg/kg/injection, schedule: Q#A X014 (sc), vehicle: steriod suspending solution) 64 % of control; (dose: 6.25 mg/kg/injection, schedule: Q#A X014 (sc), vehicle: steriod suspending solution) 77 % of control; (dose: 12.5 mg/kg/injection, schedule: Q01DX007 (sc), vehicle: steriod suspending solution) 44 % of control; (dose: 12.5 mg/kg/injection, schedule: Q#A X014 (sc), vehicle: steriod suspending solution) 48 % of control; (dose: 25.0 mg/kg/injection, schedule: Q01DX007 (sc), vehicle: steriod suspending solution) 37 % of control; (dose: 25.0 mg/kg/injection, schedule: Q#A X014 (sc), vehicle: steriod suspending solution) 43 % of control. In addition, the T/C reads like this: (dose: 50.0 mg/kg/injection, schedule: Q01DX007 (sc), vehicle: steriod suspending solution) 32 % of control; (dose: 50.0 mg/kg/injection, schedule: Q#A X014 (sc), vehicle: steriod suspending solution) 28 % of control; (dose: 100.0 mg/kg/injection, schedule: Q01DX007 (sc), vehicle: steriod suspending solution) 25 % of control; (dose: 200.0 mg/kg/injection, schedule: Q01DX007 (sc), vehicle: steriod suspending solution) 15 % of control.

With `CN(C)/N=N/c1nc[nH]c1C(N)=O`, the T/C by setting is: (dose: 11.0 mg/kg/injection, schedule: Q01DX007 (ip), vehicle: saline) 58 % of control; (dose: 12.5 mg/kg/injection, schedule: Q#A X014 (ip), vehicle: methylcellulose (MC)) 68 % of control; (dose: 20.0 mg/kg/injection, schedule: Q01DX007 (ip), vehicle: carboxymethylcellulose (CMC)) 89 % of control; (dose: 22.0 mg/kg/injection, schedule: Q01DX007 (ip), vehicle: saline) 62 % of control; (dose: 25.0 mg/kg/injection, schedule: Q#A X014 (ip), vehicle: methylcellulose (MC)) 43 % of control; (dose: 40.0 mg/kg/injection, schedule: Q01DX007 (ip), vehicle: carboxymethylcellulose (CMC)) 62 % of control. Further, the T/C is 23 % of control and 43 % of control (dose: 44.0 mg/kg/injection, schedule: Q01DX007 (ip), vehicle: carboxymethylcellulose (CMC)); 29 % of control (dose: 50.0 mg/kg/injection, schedule: Q#A X014 (ip), vehicle: methylcellulose (MC)); 28 % of control and 53 % of control (dose: 66.0 mg/kg/injection, schedule: Q01DX007 (ip), vehicle: carboxymethylcellulose (CMC)); 28 % of control and 29 % of control (dose: 100.0 mg/kg/injection, schedule: Q01DX007 (ip), vehicle: carboxymethylcellulose (CMC)); 19 % of control and 23 % of control (dose: 150.0 mg/kg/injection, schedule: Q01DX007 (ip), vehicle: carboxymethylcellulose (CMC)); 51 % of control and 73 % of control (dose: 160.0 mg/kg/injection, schedule: Q01DX007 (ip), vehicle: carboxymethylcellulose (CMC)). In addition, the T/C by setting is: (dose: 225.0 mg/kg/injection, schedule: Q01DX007 (ip), vehicle: carboxymethylcellulose (CMC)) 21 % of control; (dose: 320.0 mg/kg/injection, schedule: Q01DX007 (ip), vehicle: carboxymethylcellulose (CMC)) 39 % of control and 45 % of control; (dose: 640.0 mg/kg/injection, schedule: Q01DX007 (ip), vehicle: carboxymethylcellulose (CMC)) 25 % of control.

Regarding `C=CCSc1ncnc2c1ncn2C1OC(CO)C(O)C1O` (stereo not drawn), the T/C runs as follows: under setting [1], 80 % of control and 83 % of control; under setting [2], 35 % of control and 52 % of control; under setting [3], 34 % of control and 49 % of control.

For the compound `O=C(Nc1ccc2c(c1)Cc1cccc(NC(=O)C(Cl)Cl)c1-2)C(Cl)Cl`, the T/C runs as follows: (dose: 222.0 mg/kg/injection, schedule: Q01DX007 (ip), vehicle: carboxymethylcellulose (CMC)) 76 % of control; (dose: 222.0 mg/kg/injection, schedule: Q01DX007 (ip), vehicle: methylcellulose (MC)) 46 % of control; (dose: 222.0 mg/kg/injection, schedule: Q01DX007 (ip), vehicle: other) 52 % of control; (dose: 333.0 mg/kg/injection, schedule: Q01DX007 (ip), vehicle: carboxymethylcellulose (CMC)) 70 % of control and 90 % of control; (dose: 333.0 mg/kg/injection, schedule: Q01DX007 (ip), vehicle: methylcellulose (MC)) 69 % of control; (dose: 333.0 mg/kg/injection, schedule: Q01DX007 (ip), vehicle: other) 81 % of control. For the same compound, the T/C is 48 % of control and 58 % of control (dose: 500.0 mg/kg/injection, schedule: Q01DX007 (ip), vehicle: carboxymethylcellulose (CMC)); 87 % of control (dose: 500.0 mg/kg/injection, schedule: Q01DX007 (ip), vehicle: methylcellulose (MC)); 122 % of control (dose: 500.0 mg/kg/injection, schedule: Q01DX007 (ip), vehicle: other); 48 % of control (dose: 750.0 mg/kg/injection, schedule: Q01DX007 (ip), vehicle: carboxymethylcellulose (CMC)); 46 % of control (dose: 750.0 mg/kg/injection, schedule: Q01DX007 (ip), vehicle: methylcellulose (MC)); 89 % of control (dose: 750.0 mg/kg/injection, schedule: Q01DX007 (ip), vehicle: other).

As to `CC(CNC(=O)CCBr)NC(=O)CCBr` (stereo not drawn), the T/C (dose: 110.0 mg/kg/injection, schedule: Q01DX007 (ip), vehicle: carboxymethylcellulose (CMC)) was 48 % of control and 64 % of control; the T/C (dose: 167.8 mg/kg/injection, schedule: Q01DX007 (ip), vehicle: carboxymethylcellulose (CMC)) is 48 % of control; the T/C (dose: 168.0 mg/kg/injection, schedule: Q01DX007 (ip), vehicle: carboxymethylcellulose (CMC)) is 34 % of control.
